Results from ChEMBL document CHEMBL1201862, “PubChem BioAssay data set” (2004).
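Five concentrations, 48 hours, 96-well plates. GI50 is the concentration that inhibits growth by half.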 The source made the active and inactive calls. Cut-off read from the data, not from the text of the source: active = GI50 up to about 1.1 µM and inactive = higher.

Experiments:
Test in all cases: growth of human tumour cells (NCI), 48 h
786-0 = system: 786-0
Malme-3M = system: Malme-3M
U-251 = system: U-251
NCI-H23 = system: NCI-H23
HT-29 = system: HT-29
SK-MEL-28 = system: SK-MEL-28
UACC-62 = system: UACC-62
MOLT-4 = system: MOLT-4
SNB-75 = system: SNB-75
HCC 2998 = system: HCC 2998
NCI/ADR-RES = system: NCI/ADR-RES
HCT-15 = system: HCT-15
HOP-62 = system: HOP-62
HOP-92 = system: HOP-92
HCT-116 = system: HCT-116
SF-268 = system: SF-268
T47D = system: T47D
SF-295 = system: SF-295
LOX IMVI = system: LOX IMVI
SK-MEL-2 = system: SK-MEL-2

SMILES | GI50 (786-0) | GI50 (Malme-3M) | GI50 (U-251) | GI50 (NCI-H23) | GI50 (HT-29) | GI50 (SK-MEL-28) | GI50 (UACC-62) | GI50 (MOLT-4) | GI50 (SNB-75) | GI50 (HCC 2998) | GI50 (NCI/ADR-RES) | GI50 (HCT-15) [µM] | GI50 (HOP-62) | GI50 (HOP-92) | GI50 (HCT-116) | GI50 (SF-268) | GI50 (T47D) | GI50 (SF-295) | GI50 (LOX IMVI) | GI50 (SK-MEL-2)
Cc1nc2nc3c(ncn3COCCO)c(O)n2c1C(c1ccccc1)(c1ccccc1)c1ccccc1 | 17.1 µM (inactive) | 18.3 µM (inactive) | 14.1 µM (inactive) | 4.63 µM (inactive) | 11.7 µM (inactive) | 20 µM (inactive) | 11.4 µM (inactive) | 8.2 µM (inactive) | 12.8 µM (inactive) | 13.6 µM (inactive) | 1.55 µM (inactive) | 1.6 | 18.6 µM (inactive) | 16.7 µM (inactive) | 15.1 µM (inactive) | 16 µM (inactive) | 9.27 µM (inactive) | 17.3 µM (inactive) | 13.1 µM (inactive) | 14.5 µM (inactive)
O=C(O)C(=Cc1ccc(-c2ccccc2)cc1)C(=O)O | 14.8 µM (inactive) | 14.7 µM (inactive) | 12.5 µM (inactive) | 6.87 µM (inactive) | > 25.8 µM (inactive) | 15.8 µM (inactive) | 12.3 µM (inactive) | 15.8 µM (inactive) | 10.6 µM (inactive) | 8.73 µM (inactive) | 13.2 µM (inactive) | 12.2 | 6.75 µM (inactive) | 23.8 µM (inactive) | 10.4 µM (inactive) | 14.5 µM (inactive) | 11 µM (inactive) | 18.6 µM (inactive) | 9.75 µM (inactive) | 6.95 µM (inactive)
COCOc1ccc(C2(O)Oc3cc(OCOC)ccc3C2C)c(O)c1 (stereo not given) | 17.8 µM (inactive) | 15.3 µM (inactive) | 15 µM (inactive) | 11.2 µM (inactive) | 18.1 µM (inactive) | 17.2 µM (inactive) | 12.9 µM (inactive) | 10.3 µM (inactive) | 15.3 µM (inactive) | 13.5 µM (inactive) | 13.5 µM (inactive) | 10.5 | 18 µM (inactive) | 16.2 µM (inactive) | 14.3 µM (inactive) | 15.9 µM (inactive) | 12.3 µM (inactive) | 14.5 µM (inactive) | 16.9 µM (inactive) | 18.4 µM (inactive)
CN1CCN(CN2C(=O)C3C4C=CC(C3C2=O)C2C(=O)N(CN3CCN(C)CC3)C(=O)C42)CC1 (stereo not given) | 54 µM (inactive) | > 55.3 µM (inactive) | > 54.5 µM (inactive) | > 49.8 µM (inactive) | 22.5 µM (inactive) | > 42.9 µM (inactive) | 35 µM (inactive) | 36.9 µM (inactive) | > 100 µM (inactive) | > 57.4 µM (inactive) | > 60.4 µM (inactive) | 34 | > 54.1 µM (inactive) | > 100 µM (inactive) | 36.6 µM (inactive) | > 62.1 µM (inactive) | > 68.4 µM (inactive) | > 82.4 µM (inactive) | 24.8 µM (inactive) | > 100 µM (inactive)
CN(C)c1ccc(/C=C2\C[C@H]3[C@@H]4CCc5cc(OCCN6CCCC6)ccc5[C@H]4CC[C@]3(C)[C@H]2O)cc1 | 2.13 µM (inactive) | 11.5 µM (inactive) | 3.75 µM (inactive) | 15.1 µM (inactive) | 3.57 µM (inactive) | 5.11 µM (inactive) | 20 µM (inactive) | 9.48 µM (inactive) | 13.8 µM (inactive) | 5.7 µM (inactive) | 19.3 µM (inactive) | 5.3 | 15.1 µM (inactive) | 6.07 µM (inactive) | 2.71 µM (inactive) | 21.9 µM (inactive) | 23.3 µM (inactive) | 13.1 µM (inactive) | 7.08 µM (inactive) | 19.3 µM (inactive)
Cc1c(C#N)c2nc3ccccc3n2c(=O)/c1=C/Nc1ccc(Cl)cc1 | 6.25 µM (inactive) | > 100 µM (inactive) | 7.66 µM (inactive) | 18.1 µM (inactive) | > 100 µM (inactive) | > 100 µM (inactive) | 15.8 µM (inactive) | 34.9 µM (inactive) | 7.21 µM (inactive) | > 100 µM (inactive) | 95.7 µM (inactive) | 8.65 | 12.9 µM (inactive) | 20.1 µM (inactive) | 16.6 µM (inactive) | 22.9 µM (inactive) | 37.6 µM (inactive) | 7.71 µM (inactive) | 30.4 µM (inactive) | 14.2 µM (inactive)
CC(C)C(C(=O)O)N1C(=O)c2ccccc2C1=O (stereo not given) | > 100 µM (inactive) | > 100 µM (inactive) | > 100 µM (inactive) | > 100 µM (inactive) | > 100 µM (inactive) | > 100 µM (inactive) | > 100 µM (inactive) | > 100 µM (inactive) | > 100 µM (inactive) | > 100 µM (inactive) | > 100 µM (inactive) | > 100 | > 100 µM (inactive) | > 100 µM (inactive) | > 100 µM (inactive) | > 100 µM (inactive) | > 100 µM (inactive) | > 100 µM (inactive) | > 100 µM (inactive) | 0.18 µM (active)
NC(=O)N/N=C\CC(O)(C(F)(F)Cl)C(F)(F)Cl | > 10 µM (inactive) | > 10 µM (inactive) | > 10 µM (inactive) | > 10 µM (inactive) | > 10 µM (inactive) | > 10 µM (inactive) | > 10 µM (inactive) | > 10 µM (inactive) | > 10 µM (inactive) | > 10 µM (inactive) | > 10 µM (inactive) | > 10 | > 10 µM (inactive) | > 10 µM (inactive) | > 10 µM (inactive) | > 10 µM (inactive) | > 10 µM (inactive) | > 10 µM (inactive) | > 10 µM (inactive) | > 10 µM (inactive)
COc1cccc(Nc2nc(N)nc(N)c2N)c1 | 39.7 µM (inactive) | > 100 µM (inactive) | 76.9 µM (inactive) | 33.4 µM (inactive) | 40.7 µM (inactive) | > 100 µM (inactive) | 58.2 µM (inactive) | 15.4 µM (inactive) | > 100 µM (inactive) | 98.2 µM (inactive) | > 100 µM (inactive) | 36.9 | 29.3 µM (inactive) | > 100 µM (inactive) | 22.2 µM (inactive) | > 100 µM (inactive) | 35.6 µM (inactive) | 29.7 µM (inactive) | 21.4 µM (inactive) | > 100 µM (inactive)
O=C(Cn1c2ccc(Br)cc2c2nc3ccccc3nc21)NCc1ccccc1 | 13 µM (inactive) | 41.7 µM (inactive) | 15 µM (inactive) | 37.7 µM (inactive) | > 100 µM (inactive) | > 100 µM (inactive) | 24.4 µM (inactive) | > 100 µM (inactive) | 4.45 µM (inactive) | > 100 µM (inactive) | > 100 µM (inactive) | > 100 | 23 µM (inactive) | 2.01 µM (inactive) | 94.6 µM (inactive) | 38 µM (inactive) | 4.1 µM (inactive) | 29 µM (inactive) | 42.9 µM (inactive) | 25.3 µM (inactive)
CCCCOC(=O)C1CC[C@H]2[C@@H]3CCc4cc(OC(=O)c5cccc6c(=O)c7ccccc7[nH]c56)ccc4[C@H]3CC[C@]12C (stereo not given in full) | 9.89 µM (inactive) | 10.9 µM (inactive) | 9.79 µM (inactive) | 8.95 µM (inactive) | 10.4 µM (inactive) | 11 µM (inactive) | 6.84 µM (inactive) | 8.81 µM (inactive) | 10.4 µM (inactive) | 8.87 µM (inactive) | 11 µM (inactive) | 6.98 | 9.35 µM (inactive) | 8.3 µM (inactive) | 9.31 µM (inactive) | 9.44 µM (inactive) | 7.33 µM (inactive) | 8.53 µM (inactive) | 8.83 µM (inactive) | 9.91 µM (inactive)
CC(C)=CCC[C@@H](C)C1=C(O)C(=O)C(C)=C(N[C@H](C)c2ccccc2)C1=O | 3.66 µM (inactive) | 3.24 µM (inactive) | 5.51 µM (inactive) | 4.38 µM (inactive) | 3.78 µM (inactive) | 6.76 µM (inactive) | 2.81 µM (inactive) | 2.54 µM (inactive) | 2.53 µM (inactive) | 11.7 µM (inactive) | 1.3 µM (inactive) | 2.67 | 2.92 µM (inactive) | 6.14 µM (inactive) | 4.66 µM (inactive) | 7.01 µM (inactive) | 4.31 µM (inactive) | 3.86 µM (inactive) | 4.53 µM (inactive) | 10.2 µM (inactive)
COP(=O)(O)/C=C/C(NC(=O)C(Cl)(Cl)Cl)c1ccccc1 (stereo not given) | > 100 µM (inactive) | > 100 µM (inactive) | > 100 µM (inactive) | > 100 µM (inactive) | > 100 µM (inactive) | > 100 µM (inactive) | > 100 µM (inactive) | > 100 µM (inactive) | > 100 µM (inactive) | > 100 µM (inactive) | > 100 µM (inactive) | > 100 | > 100 µM (inactive) | > 100 µM (inactive) | > 100 µM (inactive) | > 100 µM (inactive) | > 100 µM (inactive) | > 100 µM (inactive) | > 100 µM (inactive) | > 100 µM (inactive)
Cc1cc(O)c2c(c1)C[C@@H](O)C1=C2C(=O)c2c(O)ccc(OC3CC(O)C(OC4CC(OC5CCC(OC6CC(O)C(OC7CC(OC8CCC(O)C(C)O8)C(O)C(C)O7)C(C)O6)C(C)O5)C(O)C(C)O4)C(C)O3)c2C1=O (stereo not given in full) | 0.0644 µM (active) | 0.0516 µM (active) | 0.0387 µM (active) | 0.0661 µM (active) | 0.092 µM (active) | 0.07 µM (active) | 0.0702 µM (active) | 0.0352 µM (active) | 0.0573 µM (active) | 0.105 µM (active) | 0.0308 µM (active) | 0.0684 | 0.232 µM (active) | 0.178 µM (active) | 0.0492 µM (active) | 0.0243 µM (active) | 0.167 µM (active) | 0.0441 µM (active) | 0.0426 µM (active) | 0.0577 µM (active)
